# Results as given in ChEMBL document CHEMBL5338826, “Design and Synthesis of Inhibitors of the E3 Ligase SMAD Specific E3 Ubiquitin Protein Ligase 1 as a Treatment for Lung Remodeling in Pulmonary Arterial Hypertension” (J Med Chem, 2023).
# Active and inactive are the calls of the source. The rule behind the calls is not given here.
# Experiments:
# [1] = target: T1, E3 ubiquitin-protein ligase SMURF1 (Homo sapiens, UniProt Q9HCE7); assay: Stabilization of SMURF1 (unknown origin) assessed as decrease in auto-ubiquitination by measuring increase in protein level by cell-based assay
# [2] = target: T1, E3 ubiquitin-protein ligase SMURF1; assay: Inhibition of SMURF1 (unknown origin) assessed as self-ubiquitination by TR-FRET/biochemical assay
# [3] = Metabolic stability in rat liver microsomes assessed as half life; assay type: ADME, Microsome
# [4] = Equilibrium solubility of the compound at pH 6.8; assay type: physicochemical; settings: buffer
# Rattus norvegicus [5] = species on record: Rattus norvegicus; assay: Anti-remodeling efficacy in hypoxia/Sugen 5416-induced pulmonary arterial hypertension rat model assessed as muscularized vessels in the pulmonary vasculature measured after 14 days relative to control; assay type: functional; settings: time 14 day
# Rattus norvegicus [6] = species on record: Rattus norvegicus; assay: Anti-remodeling efficacy in hypoxia/Sugen 5416-induced pulmonary arterial hypertension rat model assessed as reversal of vessel muscularization in the pulmonary vasculature measured after 14 days relative to control; assay type: functional, organism-based; settings: time 14.0 day
# Rattus norvegicus [7] = species on record: Rattus norvegicus; assay: Anti-remodeling efficacy in hypoxia/Sugen 5416-induced pulmonary arterial hypertension rat model assessed as blocked of progression of phenotype of muscularization in the pulmonary vasculature measured after 14 days relative to control; assay type: functional, organism-based; settings: time 14.0 day
# [8] = AUClast in rat at 3 mg/kg, po; assay type: ADME, organism-based; settings: in vivo
# [9] = Plasma protein binding in rat; assay type: ADME, cell-free; settings: read-out: PPB
# [10] = Cmax in rat at 3 mg/kg, po; assay type: ADME, organism-based; parameters: dose 3 mg/kg, route po; settings: in vivo
# Rattus norvegicus [11] = assay: Anti-remodeling efficacy in hypoxia/Sugen 5416-induced pulmonary arterial hypertension rat model assessed as reversal of vessel muscularization in the pulmonary vasculature at 10 mg/kg measured after 14 days relative to control; assay type: functional, organism-based; settings: time 14.0 day
# [12] = Half life in rat at 3 mg/kg, po and 1 mg/kg, iv; assay type: ADME, organism-based; settings: in vivo
# Rattus norvegicus [13] = assay: Anti-remodeling efficacy in hypoxia/Sugen 5416-induced pulmonary arterial hypertension rat model assessed as blocked of progression of phenotype of muscularization in the pulmonary vasculature at 3 mg/kg measured after 14 days relative to control; assay type: functional, organism-based; settings: time 14.0 day
# [14] = Oral bioavailability in rat at 3 mg/kg; assay type: ADME, organism-based; settings: in vivo
# Rattus norvegicus [15] = assay: Anti-remodeling efficacy in hypoxia/Sugen 5416-induced pulmonary arterial hypertension rat model assessed as blocked of progression of phenotype of muscularization in the pulmonary vasculature at 10 mg/kg measured after 14 days relative to control; assay type: functional, organism-based; settings: time 14.0 day
# Rattus norvegicus [16] = assay: Anti-remodeling efficacy in hypoxia/Sugen 5416-induced pulmonary arterial hypertension rat model assessed as reversal of vessel muscularization in the pulmonary vasculature at 3 mg/kg measured after 14 days relative to control; assay type: functional, organism-based; settings: time 14.0 day
# [17] = Volume of distribution at steady state in rat at 3 mg/kg, po and 1 mg/kg, iv; assay type: ADME, organism-based; settings: in vivo
# [18] = target: E3 ubiquitin-protein ligase SMURF2 (Homo sapiens, UniProt Q9HAU4); assay: Inhibition of SMURF2 (unknown origin) assessed as self-ubiquitination by TR-FRET/biochemical assay
# Rattus norvegicus [19] = assay: Anti-remodeling efficacy in hypoxia/Sugen 5416-induced pulmonary arterial hypertension rat model assessed as muscularized vessels in the pulmonary vasculature at 10 mg/kg measured till end of the study relative to control; assay type: functional
# Rattus norvegicus [20] = assay: Anti-remodeling efficacy in hypoxia/Sugen 5416-induced pulmonary arterial hypertension rat model assessed as muscularized vessels in the pulmonary vasculature at 10 mg/kg measured after 14 days relative to control; assay type: functional; settings: time 14 day
# T1 sequence (Q9HCE7 whole entry): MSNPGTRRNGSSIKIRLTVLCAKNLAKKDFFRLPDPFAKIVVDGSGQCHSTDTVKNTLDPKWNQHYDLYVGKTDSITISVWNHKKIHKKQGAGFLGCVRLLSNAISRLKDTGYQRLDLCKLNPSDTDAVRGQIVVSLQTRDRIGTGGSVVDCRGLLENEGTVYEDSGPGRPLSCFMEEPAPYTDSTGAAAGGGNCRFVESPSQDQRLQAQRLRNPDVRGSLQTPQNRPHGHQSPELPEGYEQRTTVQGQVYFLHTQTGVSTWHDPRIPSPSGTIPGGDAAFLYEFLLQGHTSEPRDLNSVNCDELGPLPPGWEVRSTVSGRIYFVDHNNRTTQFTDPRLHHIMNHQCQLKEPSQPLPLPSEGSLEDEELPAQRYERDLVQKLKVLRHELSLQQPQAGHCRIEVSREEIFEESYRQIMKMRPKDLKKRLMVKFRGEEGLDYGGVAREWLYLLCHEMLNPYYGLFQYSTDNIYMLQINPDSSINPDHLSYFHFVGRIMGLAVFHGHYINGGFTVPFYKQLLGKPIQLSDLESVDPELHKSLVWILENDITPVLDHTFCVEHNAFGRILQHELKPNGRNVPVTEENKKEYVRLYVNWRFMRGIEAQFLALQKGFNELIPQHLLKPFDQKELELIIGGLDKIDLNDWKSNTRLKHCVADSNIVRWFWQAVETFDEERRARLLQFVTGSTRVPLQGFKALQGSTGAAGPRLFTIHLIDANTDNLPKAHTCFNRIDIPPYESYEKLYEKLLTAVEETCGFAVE
# E3 ubiquitin-protein ligase SMURF2, sequence (Q9HAU4 whole entry): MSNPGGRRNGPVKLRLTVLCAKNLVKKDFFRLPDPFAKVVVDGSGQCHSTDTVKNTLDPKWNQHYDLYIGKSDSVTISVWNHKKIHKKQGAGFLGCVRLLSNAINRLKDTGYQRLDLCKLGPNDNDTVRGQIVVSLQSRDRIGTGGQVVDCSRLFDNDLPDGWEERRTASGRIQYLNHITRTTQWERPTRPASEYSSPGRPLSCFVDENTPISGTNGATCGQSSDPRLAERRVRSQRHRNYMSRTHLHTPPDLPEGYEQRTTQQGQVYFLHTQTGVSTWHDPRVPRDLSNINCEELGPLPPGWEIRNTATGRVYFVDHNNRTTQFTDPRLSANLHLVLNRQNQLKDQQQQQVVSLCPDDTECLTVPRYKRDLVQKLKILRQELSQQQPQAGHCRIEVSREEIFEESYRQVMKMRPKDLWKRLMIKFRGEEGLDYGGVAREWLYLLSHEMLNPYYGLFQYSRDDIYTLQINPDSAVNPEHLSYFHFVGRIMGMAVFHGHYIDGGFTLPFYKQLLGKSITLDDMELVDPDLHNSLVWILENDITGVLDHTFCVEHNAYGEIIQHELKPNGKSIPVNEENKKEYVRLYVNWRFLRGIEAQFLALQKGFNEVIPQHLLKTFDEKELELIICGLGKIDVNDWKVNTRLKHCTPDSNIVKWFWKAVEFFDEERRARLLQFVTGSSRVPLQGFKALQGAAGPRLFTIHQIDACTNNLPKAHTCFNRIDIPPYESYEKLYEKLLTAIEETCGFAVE
smiles,measurement,setting,value
COc1ccc2c(c1)CCCc1c(C(=O)Nc3c(C)n(C)n(-c4ccccc4F)c3=O)noc1-2,EC50,[1],600 nM
same,IC50,[2],200 nM
Cc1c(C(=O)Nc2c(C)n(C)n(-c3ccccc3F)c2=O)noc1-c1ccc(Cl)cc1,half-life,[3],70.5 min
same,EC50,[1],580 nM
same,solubility thermodynamic,[4],140 µM
same,IC50,[2],180 nM
COc1ccc(-c2cc(C(=O)Nc3c(C)n(C)n(-c4ccccc4)c3=O)no2)cc1,EC50,[1],> 22000 nM
same,IC50,[2],> 10000 nM
NC(=O)c1ccc(-c2nc(-c3ccccn3)c(-c3ccc4c(c3)OCO4)[nH]2)cc1 [SB-431542],Activity,Rattus norvegicus [5],15%
same,Activity,Rattus norvegicus [6],inactive
same,Activity,Rattus norvegicus [7],Active
Cc1c(C(=O)Nc2c(C)n(C)n(-c3ccccc3F)c2=O)noc1-c1cc(Cl)ccc1Cl,EC50,[1],2500 nM
same,IC50,[2],280 nM
COc1ccc(-c2onc(C(=O)Nc3c(C)n(C)n(-c4ccccc4F)c3=O)c2C)cc1,half-life,[3],15.8 min
same,EC50,[1],1600 nM
same,solubility thermodynamic,[4],22 µM
same,IC50,[2],1000 nM
COc1cc2ccc3c(C(=O)Nc4c(C)n(C)n(-c5ccccc5)c4=O)noc3c2cc1OC,IC50,[2],> 10000 nM
COc1ccc(-c2onc(C(=O)Nc3c(C)n(C)n(-c4ccccc4F)c3=O)c2C)c(C)c1,half-life,[3],45.2 min
same,EC50,[1],250 nM
same,solubility thermodynamic,[4],280 µM
same,IC50,[2],180 nM
Cc1c(C(=O)Nc2c(C)n(C)n(-c3ccccc3F)c2=O)noc1-c1ccc(C2CC2)cc1Cl,AUClast,[8],11.6 µM·h
same,fraction unbound,[9],< 0.01
same,Cmax,[10],1080 nM
same,half-life,[3],18.9 min
same,Activity,Rattus norvegicus [11],Active
same,half-life,[12],114 min
same,Activity,Rattus norvegicus [13],Active
same,EC50,[1],230 nM
same,bioavailability,[14],97%
same,Activity,Rattus norvegicus [15],Active
same,Activity,Rattus norvegicus [16],Active
same,IC50,[2],11 nM
same,Vdss,[17],1.5 L/kg
COc1ccc2c(c1)CCCc1c(C(=O)Nc3c(C)n(C)n(-c4ccccc4)c3=O)noc1-2,EC50,[1],1100 nM
same,IC50,[2],400 nM
Cc1c(C(=O)O)noc1-c1ccc(C2CC2)cc1Cl,AUClast,[8],2.78 µM·h
same,fraction unbound,[9],< 0.01
same,Cmax,[10],541 nM
same,half-life,[12],96 min
same,EC50,[1],40 nM
same,IC50,[18],2900 nM
same,bioavailability,[14],67%
same,solubility thermodynamic,[4],24 µM
same,Vdss,[17],1.7 L/kg
Cc1c(C(=O)Nc2c(C)n(C)n(-c3ccccc3F)c2=O)noc1-c1ccc(Cl)cc1Cl,half-life,[3],16.7 min
same,EC50,[1],410 nM
same,solubility thermodynamic,[4],13 µM
same,IC50,[2],29 nM
Cc1c(C(=O)Nc2c(C)n(C)n(C3CCCCC3)c2=O)nnn1-c1ccc(C2CC2)cc1Cl,AUClast,[8],7.38 µM·h
same,Activity,Rattus norvegicus [19],18%
same,fraction unbound,[9],< 0.01
same,Cmax,[10],2010 nM
same,half-life,[12],474 min
same,EC50,[1],316 nM
same,Activity,Rattus norvegicus [20],10%
same,IC50,[18],> 20000 nM
same,bioavailability,[14],82%
same,solubility thermodynamic,[4],190 µM
same,Vdss,[17],2.3 L/kg
Cc1c(C(=O)Nc2c(C)n(C)n(-c3ccccc3F)c2=O)noc1-c1ccc(Cl)cc1F,half-life,[3],30.7 min
same,EC50,[1],1100 nM
same,solubility thermodynamic,[4],530 µM
same,IC50,[2],700 nM
COc1ccc2c(c1)CCc1c(C(=O)Nc3c(C)n(C)n(-c4ccccc4)c3=O)noc1-2,EC50,[1],4660 nM
same,IC50,[18],> 10000 nM
same,IC50,[2],3000 nM
